Experiments:
Stat5 = Stat5 phosphorylation in CWR22Rv1 cells (IP/immunoblot); assay type: cell-based, human; details: 4 days
Description: In order to evaluate whether the phosphate group of IST5 is critical for IST5 activity in cell-based assays, we compared the potency of IST5 (Figure 4A) to that of IST5-M (IST5 without the phosphate group) (Figure 4B) in inhibiting phosphorylation of Stat5 in PC and CML cells. CML (K562) cells and PC (CWR22Rv1) cells were cultured for 4 days with increasing concentrations of IST5 and IST5-M (Figure 4C,D). […] Collectively, these finding indicate that IST5 and IST5-M have similar efficacies in inhibiting phosphorylation of Stat5 in both CML and PC cells.
Figure 4 IST5 and the IST5-derivative lacking the phosphate group (IST5-M), both, inhibit Stat5 phosphorylation in CML and prostate cancer cell line with high efficacy. (A), chemical structure of IST5-002 (IST5). (B), chemical structure of IST5-M (IST5 without the phosphate group. (C), IST5 and IST5-M both inhibit Stat5 phosphorylation in CML cells (K562) with high efficacy. K562 cells were treated with IST5 and IST5-M for 4 days at the concentrations indicated. Whole cell lysates (WCL) were immunoblotted with anti-pYStat5 mAb, anti-Stat5 mAb and anti-actin mAb as loading control. (D), IST5 and IST5-M, both, decrease Stat5 phosphorylation in PC cells (CWR22Rv1). CWR22Rv1 cells were treated with increasing concentrations of IST5 and IST5-M for 4 days. Stat5 was immunoprecipitated (IP) followed by immunoblotting (WB) with anti-pYStat5 mAb and anti-Stat5 mAb. Whole cell lysates (WCL) were immunoblotted with anti-actin mAb as loading control.
Cell pellets were solubilized in the lysis buffer (10 mM Tris-HCl (pH 7.6), 5 mM EDTA, 50 mM sodium chloride, 30 mM sodium pyrophosphate, 50 mM sodium fluoride, 1 mM sodium orthovanadate, 1% Triton X-100, 1 mM phenylmethylsulfonyl fluoride, 5 µg/mL aprotinin, 1 µg/mL pepstatin A and 2 µg/mL leupeptin), and protein concentrations of clarified cell lysates were determined by a simplified Bradford method (Bio-Rad, Hercules, CA, USA). The whole cell lysates were immunoprecipitated with polyclonal antibodies (Table S1) followed by incubation with protein A-Sepharose beads (GE Healthcare, Chicago, IL, USA). The cell lysates and immunoprecipitated proteins were separated on 4–12% SDS-PAGE (Life Technologies, Brown Deer, WI, USA) and transferred electrophoretically to polyvinylidene fluoride membrane (Millipore). For immunoblotting, blocking buffer was tris-buffered saline and tween 20 (TBST, 0.15 M NaCl; 0.1% Tween 20; 50 mM Tris, pH 8.0) with 3% bovine serum albumin (BSA). The immunoreaction with the specific antibodies (Table S1) was detected by horseradish peroxidase-conjugated secondary antibodies followed by enhanced chemiluminescence (GE Healthcare).

AKT1 = target: T1, AKT1 (Homo sapiens, UniProt P31749); experiment: Kinase Seeker luminescence cell-free assay; assay type: binding; details: percent activity of kinase after exposure to IST5 1 µM
T1 construct: purchased Reaction Biology (JAK1/2/3, TYK2); Luceome Biotechnologies KinaseSeeker (others)
T1 sequence (P31749 whole entry): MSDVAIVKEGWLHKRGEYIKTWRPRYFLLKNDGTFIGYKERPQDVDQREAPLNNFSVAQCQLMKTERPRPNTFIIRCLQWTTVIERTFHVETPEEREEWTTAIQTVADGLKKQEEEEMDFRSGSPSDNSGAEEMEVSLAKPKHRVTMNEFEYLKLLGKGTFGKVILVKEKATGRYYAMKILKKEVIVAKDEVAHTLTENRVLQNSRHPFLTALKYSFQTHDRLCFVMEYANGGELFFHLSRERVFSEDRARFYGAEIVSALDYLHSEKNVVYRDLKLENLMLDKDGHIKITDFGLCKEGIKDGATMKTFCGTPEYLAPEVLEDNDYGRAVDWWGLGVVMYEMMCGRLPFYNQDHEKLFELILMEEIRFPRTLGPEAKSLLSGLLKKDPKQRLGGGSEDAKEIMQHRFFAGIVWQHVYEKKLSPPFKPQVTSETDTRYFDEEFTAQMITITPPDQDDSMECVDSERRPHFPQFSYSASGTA
Description: (§1) For Jak1, Jak2, Jak3 and Tyk2, a radiometric filtration binding assay was conducted by Reaction Biologicals (Malvern, PA, USA) (Table 1). This radiometric assay is a cell-free assay which is based on conventional filter-binding assays, directly measuring kinase catalytic activity toward a specific substrate. For evaluation of the activity of the other kinases, the Kinase Seeker Technology was utilized (Luceome Biotechnologies, Tucson, AZ, USA), which is a luminescence-based cell-free assay. In this assay, the reassembly of luciferase fragments is mediated by the interaction of a kinase with an active site-dependent probe. The competitive displacement of the probe by an inhibitor is measured by a change in luminescence signal. Percent activity of each kinase after exposure to IST5 (1 µM) is presented.

AURKA = target: T2, AURKA (Homo sapiens, UniProt O14965); experiment: Kinase Seeker luminescence cell-free assay; assay type: binding; details: percent activity of kinase after exposure to IST5 1 µM
T2 construct: purchased Reaction Biology (JAK1/2/3, TYK2); Luceome Biotechnologies KinaseSeeker (others)
T2 sequence (O14965 whole entry): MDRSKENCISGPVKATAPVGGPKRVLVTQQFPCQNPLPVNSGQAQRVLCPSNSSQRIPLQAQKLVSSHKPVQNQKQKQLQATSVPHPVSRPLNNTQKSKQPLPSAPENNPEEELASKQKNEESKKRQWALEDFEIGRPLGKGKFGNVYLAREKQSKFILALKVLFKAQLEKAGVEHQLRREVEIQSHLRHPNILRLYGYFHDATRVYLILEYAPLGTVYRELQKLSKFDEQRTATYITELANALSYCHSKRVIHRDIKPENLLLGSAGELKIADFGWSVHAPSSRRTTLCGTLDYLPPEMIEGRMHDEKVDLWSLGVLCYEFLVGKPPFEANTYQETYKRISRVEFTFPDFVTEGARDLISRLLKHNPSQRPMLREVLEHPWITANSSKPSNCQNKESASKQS
Description: as §1

LCK = target: T3, LCK (Homo sapiens, UniProt P06239); experiment: Kinase Seeker luminescence cell-free assay; assay type: binding; details: percent activity of kinase after exposure to IST5 1 µM
T3 construct: purchased Reaction Biology (JAK1/2/3, TYK2); Luceome Biotechnologies KinaseSeeker (others)
T3 sequence (P06239 whole entry): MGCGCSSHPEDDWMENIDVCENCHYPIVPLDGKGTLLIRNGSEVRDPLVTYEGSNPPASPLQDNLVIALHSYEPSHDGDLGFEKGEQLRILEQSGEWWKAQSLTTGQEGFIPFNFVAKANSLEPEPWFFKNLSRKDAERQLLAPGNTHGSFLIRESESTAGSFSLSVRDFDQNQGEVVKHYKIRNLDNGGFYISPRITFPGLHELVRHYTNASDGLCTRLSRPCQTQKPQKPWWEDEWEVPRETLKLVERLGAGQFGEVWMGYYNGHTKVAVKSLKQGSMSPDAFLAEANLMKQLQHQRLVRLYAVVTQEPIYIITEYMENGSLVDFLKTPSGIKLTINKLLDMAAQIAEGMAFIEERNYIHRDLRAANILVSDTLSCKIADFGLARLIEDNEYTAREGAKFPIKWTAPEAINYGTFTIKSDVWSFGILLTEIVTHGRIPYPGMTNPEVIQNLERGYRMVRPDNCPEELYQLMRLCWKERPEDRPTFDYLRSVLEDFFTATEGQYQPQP
Description: as §1

PIM1 = target: T4, PIM1 (Homo sapiens, UniProt P11309); experiment: Kinase Seeker luminescence cell-free assay; assay type: binding; details: percent activity of kinase after exposure to IST5 1 µM
T4 construct: purchased Reaction Biology (JAK1/2/3, TYK2); Luceome Biotechnologies KinaseSeeker (others)
T4 sequence (P11309 whole entry): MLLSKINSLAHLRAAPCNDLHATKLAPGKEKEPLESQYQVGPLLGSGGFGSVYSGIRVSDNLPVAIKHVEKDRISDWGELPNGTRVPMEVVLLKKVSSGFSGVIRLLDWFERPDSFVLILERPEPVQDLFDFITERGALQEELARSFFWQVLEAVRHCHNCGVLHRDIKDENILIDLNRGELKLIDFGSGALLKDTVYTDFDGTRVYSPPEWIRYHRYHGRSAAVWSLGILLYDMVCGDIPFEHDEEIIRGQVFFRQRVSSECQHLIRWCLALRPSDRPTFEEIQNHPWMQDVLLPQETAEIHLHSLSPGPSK
Description: as §1

PYK2 = target: T5, PYK2 (Homo sapiens, UniProt Q14289); experiment: Kinase Seeker luminescence cell-free assay; assay type: binding; details: percent activity of kinase after exposure to IST5 1 µM
T5 construct: purchased Reaction Biology (JAK1/2/3, TYK2); Luceome Biotechnologies KinaseSeeker (others)
T5 sequence (Q14289 whole entry): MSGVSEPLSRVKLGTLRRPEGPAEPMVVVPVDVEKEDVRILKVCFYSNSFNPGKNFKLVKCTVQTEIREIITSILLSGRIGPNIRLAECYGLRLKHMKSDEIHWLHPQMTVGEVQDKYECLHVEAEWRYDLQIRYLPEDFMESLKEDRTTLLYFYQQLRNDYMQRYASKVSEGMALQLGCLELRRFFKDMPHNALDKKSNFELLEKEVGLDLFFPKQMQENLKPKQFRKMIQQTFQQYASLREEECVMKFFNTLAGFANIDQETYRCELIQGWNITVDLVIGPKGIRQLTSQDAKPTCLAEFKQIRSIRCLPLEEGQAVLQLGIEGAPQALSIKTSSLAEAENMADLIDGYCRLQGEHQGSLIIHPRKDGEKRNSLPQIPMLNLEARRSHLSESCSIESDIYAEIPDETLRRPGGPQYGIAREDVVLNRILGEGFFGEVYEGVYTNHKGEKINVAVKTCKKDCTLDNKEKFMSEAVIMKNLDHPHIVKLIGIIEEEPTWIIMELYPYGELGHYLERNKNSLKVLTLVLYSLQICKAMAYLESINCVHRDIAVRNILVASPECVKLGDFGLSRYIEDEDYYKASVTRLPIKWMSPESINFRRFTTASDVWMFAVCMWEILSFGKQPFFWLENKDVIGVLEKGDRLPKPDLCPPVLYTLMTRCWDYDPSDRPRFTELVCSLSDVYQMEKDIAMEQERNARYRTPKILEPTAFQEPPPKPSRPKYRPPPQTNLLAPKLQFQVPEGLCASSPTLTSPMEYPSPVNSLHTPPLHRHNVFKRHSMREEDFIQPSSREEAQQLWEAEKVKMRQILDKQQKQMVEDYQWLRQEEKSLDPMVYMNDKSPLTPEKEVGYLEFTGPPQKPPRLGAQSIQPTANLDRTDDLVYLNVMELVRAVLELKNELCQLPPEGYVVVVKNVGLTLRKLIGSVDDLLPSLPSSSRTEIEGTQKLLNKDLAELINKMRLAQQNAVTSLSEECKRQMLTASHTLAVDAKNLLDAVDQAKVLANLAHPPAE
Description: as §1

SYK = target: T6, SYK (Homo sapiens, UniProt P43405); experiment: Kinase Seeker luminescence cell-free assay; assay type: binding; details: percent activity of kinase after exposure to IST5 1 µM
T6 construct: purchased Reaction Biology (JAK1/2/3, TYK2); Luceome Biotechnologies KinaseSeeker (others)
Description: as §1

PC xenograft tumors = system: PC xenograft tumors; design: method as in PMID 18316550, PMID 23942095, PMID 26362718, PMID 20966544, PMID 20233708; details: cited from earlier work
[1] = system: enzalutamide-resistant PC; design: method as in PMID 31548294; details: cited from earlier work

SMILES: O=P(O)(O)OCC1OC(n2cnc3c(NCc4ccccc4)ncnc32)C(O)C1O (stereo not shown) [IST5]
- inhibition of Stat5 phosphorylation (Stat5; 2 µM, CWR22Rv1 cells): 60–75%
- IC50 (Stat5; read-out: IC50, inhibition of Stat5 phosphorylation, CWR22Rv1 PC cells): ~1300 nM
- Activity (AKT1): 100.0%
- Activity (AURKA): 85.3%
- Activity (LCK): 88.9%
- Activity (PIM1): 93.9%
- Activity (PYK2): 95.7%
- Activity (SYK): 92.1%
- growth of PC xenograft tumors in mice in vivo (PC xenograft tumors): block growth
- enzalutamide-resistant PC growth in mice [1]: blocks enzalutamide-resistant PC growth
